Biological target: PAI-1 (Homo sapiens, UniProt P05121)
Experiment: PAI-1 inhibition in the S2251 chromogenic substrate assay (PAI functional assay)
Type: biochemical
Conditions: Table 1, second part, read-out: INHIBITION OF PAI-1 (degree of inhibition)
Description: In this assay, a compound is incubated with PAI-1 prior to addition to the tPA assay system. Inhibition of PAI-1 results in the production of plasmin from plasminogen. […]
Compounds of formula (A) were tested in a PAI chromogenic substrate assay. […] In turn, the plasmin cleaved the chromogenic substrate S2251 (Kabi-Vitrum) producing pNA (p-nitroaniline) which was detected scectrophotometrically at 405 nm.

Sequence of PAI-1 (P05121 24-402): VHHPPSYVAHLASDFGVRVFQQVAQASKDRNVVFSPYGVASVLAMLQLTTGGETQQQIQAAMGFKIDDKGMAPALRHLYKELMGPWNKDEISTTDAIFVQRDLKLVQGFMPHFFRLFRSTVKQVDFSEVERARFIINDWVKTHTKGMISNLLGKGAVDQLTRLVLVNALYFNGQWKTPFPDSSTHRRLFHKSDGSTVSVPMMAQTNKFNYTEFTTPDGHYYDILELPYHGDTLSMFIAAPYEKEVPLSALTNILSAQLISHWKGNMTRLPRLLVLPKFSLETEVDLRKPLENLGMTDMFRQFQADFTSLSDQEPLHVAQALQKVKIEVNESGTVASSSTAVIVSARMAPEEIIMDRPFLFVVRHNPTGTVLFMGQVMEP

SMILES | inhibition at 20 µM [%] | inhibition at 50 µM [%] | inhibition at 100 µM [%]
O=c1[nH]/c(=C\c2ccc(OCC(O)CN3CCOCC3)cc2)c(=O)[nH]/c1=C\c1ccccc1 (stereo not drawn) [Compound 5040, (3Z,6Z)-6-Benzylidene-3-(4-(2-hydroxy-3-morpholinopropoxy)benzylidene)-2,5-piperazinedione] | 0 | 1 | 0
O=c1[nH]/c(=C\c2ccc(OCC(O)CN3CCN(CCO)CC3)cc2)c(=O)[nH]/c1=C\c1ccccc1 (stereo not drawn) [Compound 5043, (3Z,6Z)-6-Benzylidene-3-(4-(2-hydroxy-3-(4-(2-hydroxyethyl)-1-piperazinyl)propoxy)benzylidene)-2,5-piperazinedione] | 1 | 15 | 21
O=c1[nH]/c(=C\c2ccc(OCCN3CCCC3)cc2)c(=O)[nH]/c1=C\c1ccccc1 [Compound 5053, (3Z,6Z)-6-Benzylidene-3-(4-(2-(1-pyrrolidinyl)ethoxy)benzylidene)2,5-piperazinedione] | 56 | 64 | 68
O=c1[nH]/c(=C\c2ccc(OCCN3CCOCC3)cc2)c(=O)[nH]/c1=C\c1ccccc1 [Compound 5054, (3Z,6Z)-6-Benzylidene-3-(4-(2-morpholinoethoxy)benzylidene)-2,5-piperazinedione] | 48 | 57 | 5
O=c1[nH]/c(=C\c2ccc(OCCn3ccnc3)cc2)c(=O)[nH]/c1=C\c1ccccc1 [Compound 5055, (3Z,6Z)-6-Benzylidene-3-(4-(2-(1-imidazolyl)ethoxy)benzylidene)2,5-piperazinedione] | 70 | 69 | 69
O=c1[nH]/c(=C\c2ccc(OCC(O)Cn3ccnc3)cc2)c(=O)[nH]/c1=C\c1ccccc1 (stereo not drawn) [Compound 5057, (3Z,6Z)-6-Benzylidene-3-(4-(2-hydroxy-3-(1-imidazolyl)propoxy)benzylidene)-2,5-piperazinedione] | 37 | 29 | 44
CN(C)CC(=O)NCc1ccc(/C=c2\[nH]c(=O)/c(=C/c3ccccc3)[nH]c2=O)cc1 [Compound 5061, (3Z,6Z)-6-Benzylidene-3-(4-dimethylaminoacetamidomethylbenzylidene)-2,5-piperazinedione] | 60 | 48 | 43

Now from value to compound:

inhibition at 20 µM [%] | inhibition at 50 µM [%] | inhibition at 100 µM [%] | SMILES
63 | 62 | 65 | CN(C)CC(O)COc1ccc(/C=c2\[nH]c(=O)/c(=C/c3ccccc3)[nH]c2=O)cc1 (stereo not drawn) [Compound 5032, (3Z,6Z)-6-Benzylidene-3-(4-(3-dimethylamino-2-hydroxypropoxy)benzylidene)-2,5-piperazinedione]
0 | 0 | 1 | CN(C)CCCOc1ccc(/C=c2\[nH]c(=O)/c(=C/c3ccco3)[nH]c2=O)cc1 [Compound 5041, (3Z,6Z)-6-(4-(3-Dimethylaminopropoxy)benzylidene)-3-furfurylidene-2,5-piperazinedione]
42 | 64 | 77 | CN(C)CCCOc1ccc(/C=c2\[nH]c(=O)/c(=C/c3ccsc3)[nH]c2=O)cc1 [Compound 5042, (3Z,6Z)-6-(4-(3-Dimethylaminopropoxy)benzylidene)-3-(3-Thenylidene)-2,5-piperazinedione]
11 | 19 | 55 | CC(=O)Nc1ccc(/C=c2\[nH]c(=O)/c(=C/c3ccc(OCCCN(C)C)cc3)[nH]c2=O)cc1 [Compound 5048]
86 | 76 | 77 | CN(C)CCCOc1ccc(/C=c2\[nH]c(=O)/c(=C/c3ccoc3)[nH]c2=O)cc1 [Compound 5052, (3Z,6Z)-6-(4-(3-Dimethylaminopropoxy)benzylidene)-3-(3-Furylmethylene)-2,5-piperazinedione]

Source: patent US5891877A, “Pharmaceutical compounds” (Xenova Limited, priority 1996, dated 1999)
